This note sets out measurements from patent US10570152B2, “Antibacterial therapeutics and prophylactics” (VYOME BIOSCIENCES PVT. LTD., priority 2015, dated 2020).

Common to all, as to experiment: MIC by micro broth dilution
Common to all, as to type: cell-based
In general terms: In broth dilution the organism is exposed to a series of concentrations in liquid medium.

For one assay, the system named is E. faecium NCIM 5421. The following applies: for MIC: Enterococcus faecium, NCIM5421, read-out: Minimum inhibitory concentration (MIC). How it is done:
(§1) MIC of DART molecules were determined by micro broth dilution as per CLSI guidelines. Bacterial strains were cultured in Brain Heart Infusion Agar (BHIA) at 37° C. for 24 h. For MIC determination, BHI broth (100 μl) was added to each of the wells of a 96 well plate. 100 μl of broth containing drug was added to the first well (1A to 1H) and thereafter serial (double) dilutions were carried out for up to 10 wells (column 1 to column 10 of the 96 well plate). Bacterial inoculum was prepared by adjusting the bacterial culture turbidity to 0.5 McFarland standard (approximately 1.5×10^8 cells/ml) and further diluted (100 times with sterile BHI broth). Diluted bacterial suspension (100 μl) was added to each well except sterility control wells (column 12 of 96 well plate). The plates were incubated at 37° C. for 24 h. The MIC of the test compound was measured after addition of Alamar blue dye.

Another assay deals with S. aureus ATCC 43300. The conditions noted are these: S. aureus ATCC 43300; for MIC: Staphylococcus aureus, ATCC43300, read-out: Minimum inhibitory concentration (MIC). As to the method: as §1
The subject of the next assay is S. aureus CCARM 3505. The conditions noted are these: for MIC: Staphylococcus aureus, CCARM3505, read-out: Minimum inhibitory concentration (MIC). How it is done:
as §1

In a further assay the test system is S. aureus MTCC 6908. The conditions noted are these: for MIC: Staphylococcus aureus, MTCC6908, read-out: Minimum inhibitory concentration (MIC). How it is done: as §1
In assay [1] the test system is S. epidermidis ATCC 35984. The following applies: for MIC: Staphylococcus epidermidis, ATCC35984, read-out: Minimum inhibitory concentration (MIC). How it is done: as §1
In the next assay the test system is S. epidermidis S12-1. The conditions noted are these: for MIC: Staphylococcus epidermidis, S121, read-out: Minimum inhibitory concentration (MIC). As to the method: as §1
A further assay deals with E. coli MTCC 1687. The following applies: Escherichia coli, MTCC1687, read-out: Minimum inhibitory concentration (MIC). As to the method: as §1

In brackets after ≈: the same amount, converted by molar mass.

With `CCNC(=O)N1CCN(c2cc3c(cc2F)c(=O)c(C(=O)O)c2n3C(C)S2)CC1` (stereo not shown) [Compound 48, 7-(4-(Ethylcarbamoyl)piperazin-1-yl)-6-fluoro-1-methyl-4-oxo-1H,4H-[1,3]thiazeto[3,2-a]quinoline-3-carboxylic acid], the MIC was > 16 µg/mL in the assay on E. faecium NCIM 5421; 1 µg/mL (≈ 2.38 µM) in the assay on S. aureus ATCC 43300; > 16 µg/mL in the assay with S. aureus CCARM 3505; 2 µg/mL (≈ 4.76 µM) with S. aureus MTCC 6908; 0.5 µg/mL (≈ 1.19 µM) in assay [1]; > 16 µg/mL with S. epidermidis S12-1.

Regarding `CC(=O)NC[C@H]1CN(c2ccc(N3CCN(C(=O)NC(=N)N)CC3)c(F)c2)C(=O)O1` [Compound 84, (S)-4-(4-(5-(Acetamidomethyl)-2-oxooxazolidin-3-yl)-2-fluorophenyl)-N-carbamimidoylpiperazine-1-carboxamide], the MIC in the assay with E. faecium NCIM 5421 is > 16 µg/mL; in the assay on S. aureus ATCC 43300 it was > 16 µg/mL; with S. aureus CCARM 3505, > 16 µg/mL; with S. aureus MTCC 6908, > 16 µg/mL; in assay [1] it was 16 µg/mL (≈ 38 µM); in the assay with S. epidermidis S12-1, 8 µg/mL (≈ 19 µM).

In the case of `CC(=O)NC[C@H]1CN(c2ccc(N3CCN(C(=O)c4coc(N)n4)CC3)c(F)c2)C(=O)O1` [Compound 110, (S)—N-(3-{4-[4-(2-amino-oxazole-4-carbonyl)-piperazin-1-yl]-3-fluoro-phenyl}-2-oxo-oxazolidin-5-ylmethyl)-acetamide], the MIC (in the assay with E. faecium NCIM 5421; in the assay on S. aureus ATCC 43300; in the assay on S. aureus CCARM 3505; in the assay on S. aureus MTCC 6908; in assay [1]; in the assay on S. epidermidis S12-1) was > 16 µg/mL each time.

For `CC(=O)NC[C@H]1CN(c2ccc(N3CCN(C(=O)c4cccc(Br)n4)CC3)c(F)c2)C(=O)O1` [Compound 76, (S)—N-((3-(4-(4-(6-Bromopicolinoyl)piperazin-1-yl)-3-fluorophenyl)-2-oxooxazolidin-5-yl)methyl)acetamide], the MIC in the assay on E. faecium NCIM 5421 is > 16 µg/mL; in the assay on S. aureus ATCC 43300 it was 8 µg/mL (≈ 15.4 µM); in the assay with S. aureus CCARM 3505, 8 µg/mL (≈ 15.4 µM); in the assay with S. aureus MTCC 6908, 4 µg/mL (≈ 7.69 µM); in assay [1] it was 2 µg/mL (≈ 3.84 µM); with S. epidermidis S12-1, 4 µg/mL (≈ 7.69 µM).

Turning to `CC1Sc2c(C(=O)O)c(=O)c3cc(F)c(N4CCN(C(=O)CNC(=O)c5cccc[n+]5[O-])CC4)cc3n21` (stereo not shown) [Compound 111, 2-((2-(4-(3-carboxy-6-fluoro-1-methyl-4-oxo-1H,4H-[1,3]thiazeto[3,2-a]quinolin-7-yl)piperazin-1-yl)-2-oxoethyl)carbamoyl)pyridine 1-oxide], the MIC was > 16 µg/mL with E. faecium NCIM 5421; 16 µg/mL (≈ 30.3 µM) in the assay on S. aureus ATCC 43300; > 16 µg/mL in the assay with S. aureus CCARM 3505; > 16 µg/mL with S. aureus MTCC 6908; > 16 µg/mL in assay [1]; > 16 µg/mL in the assay with S. epidermidis S12-1.

With `CC(=O)NC[C@H]1CN(c2ccc(N3CCN(C(=O)c4csc(NC(=N)N)n4)CC3)c(F)c2)C(=O)O1` [Compound 58, (S)—N-((3-(3-fluoro-4-(4-(2-guanidinothiazole-4-carbonyl)piperazin-1-yl)phenyl)-2-oxooxazolidin-5-yl)methyl)acetamide], the MIC (in the assay on E. faecium NCIM 5421; in the assay with S. aureus ATCC 43300; with S. aureus CCARM 3505; with S. aureus MTCC 6908; in assay [1]; with S. epidermidis S12-1) was > 16 µg/mL in each case.

For `CC(=O)NC[C@H]1CN(c2ccc(N3CCN(C(=O)c4c[nH]c5ccc([N+](=O)[O-])cc45)CC3)c(F)c2)C(=O)O1` [Compound 75, (S)—N-((3-(3-fluoro-4-(4-(5-nitro-1H-indole-3-carbonyl)piperazin-1-yl)phenyl)-2-oxooxazolidin-5-yl)methyl)acetamide], the MIC was > 16 µg/mL in the assay on E. faecium NCIM 5421; 16 µg/mL (≈ 30.5 µM) in the assay on S. aureus ATCC 43300; > 16 µg/mL with S. aureus CCARM 3505; 4 µg/mL (≈ 7.63 µM) with S. aureus MTCC 6908; > 16 µg/mL in assay [1]; > 16 µg/mL with S. epidermidis S12-1.

Regarding `CC(=O)NC[C@H]1CN(c2ccc(N3CCN(CC(=O)Nc4ccc5nc(N)[nH]c5c4)CC3)c(F)c2)C(=O)O1` [Compound 68, (S)-2-(4-(4-(5-(acetamidomethyl)-2-oxooxazolidin-3-yl)-2-fluorophenyl)piperazin-1-yl)-N-(2-amino-1H-benzo[d]imidazol-6-yl)acetamide], the MIC in the assay with E. faecium NCIM 5421 is > 16 µg/mL; in the assay on S. aureus ATCC 43300, > 64 µg/mL; in the assay on S. aureus CCARM 3505, > 16 µg/mL; in the assay on S. aureus MTCC 6908 it was 16 µg/mL (≈ 30.5 µM); in assay [1], > 16 µg/mL; with S. epidermidis S12-1, > 16 µg/mL.

Consider `CC(=O)NC[C@H]1CN(c2ccc(N3CCN(Cc4nc5cc(Cl)c(Cl)cc5[nH]4)CC3)c(F)c2)C(=O)O1` [Compound 66, (S)—N-((3-(4-(4-((5,6-Dichloro-1H-benzo[d]imidazol-2-yl)methyl)piperazin-1-yl)-3-fluorophenyl)-2-oxooxazolidin-5-yl)methyl)acetamide], for which the MIC in the assay on E. faecium NCIM 5421 was > 16 µg/mL; in the assay with S. aureus CCARM 3505 it was > 16 µg/mL; in the assay on S. aureus MTCC 6908, 8 µg/mL (≈ 14.9 µM); in assay [1] it was 8 µg/mL (≈ 14.9 µM); with S. epidermidis S12-1 it was > 16 µg/mL. Besides, in the assay with S. aureus ATCC 43300, the “Minimum inhibitory concentration (MIC)” value is on record as 8/16.

As to `CC(=O)NC[C@H]1CN(c2ccc(N3CCN(Cc4nc5ccc([N+](=O)[O-])cc5[nH]4)CC3)c(F)c2)C(=O)O1` [Compound 65, (S)—N-((3-(3-Fluoro-4-(4-((6-nitro-1H-benzo[d]imidazol-2-yl)methyl)piperazin-1-yl)phenyl)-2-oxooxazolidin-5-yl)methyl)acetamide], the MIC in the assay with E. faecium NCIM 5421 is > 16 µg/mL; with S. aureus ATCC 43300, > 16 µg/mL; in the assay on S. aureus CCARM 3505 it was > 16 µg/mL; in the assay with S. aureus MTCC 6908, 16 µg/mL (≈ 31.3 µM); in assay [1], 16 µg/mL (≈ 31.3 µM); in the assay on S. epidermidis S12-1 it was > 16 µg/mL.

`CC(=O)NC[C@H]1CN(c2ccc(N3CCN(C(=O)c4ccccn4)CC3)c(F)c2)C(=O)O1` [Compound 77, (S)—N-((3-(3-fluoro-4-(4-picolinoylpiperazin-1-yl)phenyl)-2-oxooxazolidin-5-yl)methyl)acetamide]: the MIC amounted to 0.5 µg/mL (≈ 1.13 µM) in the assay with E. faecium NCIM 5421; 8 µg/mL (≈ 18.1 µM) in the assay with S. aureus ATCC 43300; 8 µg/mL (≈ 18.1 µM) with S. aureus CCARM 3505; 4 µg/mL (≈ 9.06 µM) in the assay with S. aureus MTCC 6908; 4 µg/mL (≈ 9.06 µM) in assay [1]; 4 µg/mL (≈ 9.06 µM) in the assay with S. epidermidis S12-1.

For the compound `CC(=O)NC[C@H]1CN(c2ccc(N3CCN(C(=O)c4cccc[n+]4[O-])CC3)c(F)c2)C(=O)O1` [Compound 78, (S)-2-(4-(4-(5-(acetamidomethyl)-2-oxooxazolidin-3-yl)-2-fluorophenyl)piperazine-1-carbonyl)-pyridine 1-oxide], the MIC in the assay on E. faecium NCIM 5421 is > 16 µg/mL; in the assay on S. aureus ATCC 43300 it was 16 µg/mL (≈ 35 µM); with S. aureus CCARM 3505, > 16 µg/mL; with S. aureus MTCC 6908, 8 µg/mL (≈ 17.5 µM); in assay [1] it was 8 µg/mL (≈ 17.5 µM); with S. epidermidis S12-1 it was 8 µg/mL (≈ 17.5 µM).

In the case of `CCCCCCCCCCC[CH2][SnH2][CH2][C@@H](NC(C)=O)C(=O)N1CCN(c2ccc(N3CC(CNC(C)=O)OC3=O)cc2F)CC1` (stereo partly drawn) [Compound 108, (S)—N-[2-(4-{4-[5-(Acetylamino-methyl)-2-oxo-oxazolidin-3-yl]-2-fluoro-phenyl}-piperazin-1-yl)-1-dodecylstannanylmethyl-2-oxo-ethyl]-acetamide], the “Minimum inhibitory concentration (MIC)” value (in the assay with E. faecium NCIM 5421; in the assay on S. aureus ATCC 43300; in the assay with S. aureus CCARM 3505; in the assay on S. aureus MTCC 6908; in assay [1]; in the assay with S. epidermidis S12-1) was >16 µg/mL throughout.

As to `CC1Sc2c(C(=O)O)c(=O)c3cc(F)c(N4CCN(CC(=O)NC(=O)Nc5ccccc5)CC4)cc3n21` (stereo not shown) [Compound 112, 6-Fluoro-1-methyl-4-oxo-7-(4-(2-oxo-2-(3-phenylureido)ethyl)piperazin-1-yl)-1H,4H-[1,3]thiazeto-[3,2-a]quinoline-3-carboxylic acid], the MIC in the assay with E. coli MTCC 1687 was 1 µg/mL (≈ 1.9 µM); in the assay with E. faecium NCIM 5421, > 16 µg/mL; in the assay on S. aureus ATCC 43300, 0.13 µg/mL (≈ 0.247 µM); in the assay with S. aureus CCARM 3505 it was > 16 µg/mL; in the assay with S. aureus MTCC 6908, 0.25 µg/mL (≈ 0.476 µM); in assay [1] it was 0.13 µg/mL (≈ 0.247 µM). The MIC in the assay on S. epidermidis S12-1 came to 8 µg/mL (≈ 15.2 µM).

Take `CC(=O)NC[C@H]1CN(c2ccc(N3CCN(C(=O)c4csc(N)n4)CC3)c(F)c2)C(=O)O1` [Compound 57, (S)—N-((3-(4-(4-(2-aminothiazole-4-carbonyl)piperazin-1-yl)-3-fluorophenyl)-2-oxooxazolidin-5-yl)methyl)acetamide]: the MIC with E. faecium NCIM 5421 is > 16 µg/mL; in the assay with S. aureus ATCC 43300, 16 µg/mL (≈ 34.6 µM); in the assay on S. aureus CCARM 3505, > 16 µg/mL; in the assay with S. aureus MTCC 6908, 8 µg/mL (≈ 17.3 µM); in assay [1], > 16 µg/mL; in the assay on S. epidermidis S12-1, > 16 µg/mL.

`CC(=O)NC[C@H]1CN(c2ccc(N3CCN(C(=O)CNC(=O)c4cccc[n+]4[O-])CC3)c(F)c2)C(=O)N1` [Compound 80, (S)-2-((2-(4-(4-(4-(Acetamidomethyl)-2-oxoimidazolidin-1-yl)-2-fluorophenyl)piperazin-1-yl)-2-oxoethyl)carbamoyl)pyridine 1-oxide]: the MIC with E. faecium NCIM 5421 was > 16 µg/mL; with S. aureus ATCC 43300, 16 µg/mL (≈ 31.2 µM); in the assay with S. aureus CCARM 3505, > 16 µg/mL; in the assay with S. aureus MTCC 6908, 16 µg/mL (≈ 31.2 µM); in assay [1], > 16 µg/mL; with S. epidermidis S12-1, > 16 µg/mL.
